# Measurements from patent publication US11491127B2, “Therapeutic use of compounds” (UCL BUSINESS LTD, priority 2010, dated 2022).
# Like-named read-outs stand apart in the source and are kept apart here.
# Key:
# [1] = test system: phosphoinositide (PIP and PIP2) turnover in Dictyostelium AX2 cells; assay: Dictyostelium phospholipid labelling (PIP and PIP2 turnover); assay type: cell-based, Dictyostelium discoideum; details: for activity at 500 µM: Dictyostelium, 0.1 h
# Method: Phospholipid labelling was quantified using a Typhoon phosphor-imager. Even loading was determined using total lipid stain with copper sulphate.
# [2] = test system: PTZ-induced epileptiform activity in entorhinal cortex-hippocampal slices; assay: In vitro PTZ acute seizure model, entorhinal cortex-hippocampus slices; assay type: cell-based, rat; details: PTZ 2 mM, [K+] 6 mM; compounds equimolar 1 mM; 30 to 40 minutes after application
# Method: The rats (p21) were decapitated after killing by intraperitoneal injection with an overdose of pentobarbitone (500 mg/kg). The brain was removed and placed in ice-cold sucrose solution in mM: NaCl 87, KCl 2.5, MgCl2 7, CaCl2 0.5, NaH2PO4 1.25, sucrose 75, glucose 25, equilibrated with 95% 02/5% CO2 (pH 7.4). Horizontal combined entorhinal cortex-hippocampus slices (350 μm) were prepared with a Leica vibratome (Leica V T1200S) and were then stored in an interface chamber that contained artificial cerebrospinal fluid solution (aCSF) containing in mM: NaCl 119, KCl 2.5, MgSO4 4, CaCl2 4, NaHCO326.2, NaH2PO4 1, glucose 11, and gassed with 95% O2/5% CO2. They were stored for over one hour before being transferred to a submersion recording chamber continually perfused with carbogenated aCSF for recording. Field potential recordings were made by placing glass microelectrodes (˜1-2 MΩ) filled with aCSF solution in stratum radiatum of CA1. Bipolar stimulating electrodes were positioned in the Schaffer collateral/commissural fibre pathway in stratum radiatum to confirm slice viability. In the PTZ acute seizure model, PTZ (2 mM) was added to the perfusate and [K+] was increased to 6 mM in order to induce epileptiform activity (Armand et al., 1998). In the low Mg^2+ acute seizure model, Mg^2+ free aCSF was applied to generate rhythmic short recurrent discharges. Novel anticonvulsants were applied once the frequency and amplitude of the epileptiform discharges were stable over a period of 10 min. Anticonvulsant effects were evaluated by measuring the variation of frequency of the discharges every minute. The data acquired from the 30 to 40 minutes after application novel anticonvulsants were compared by ANOVA followed by post-hoc testing using Tukey test, using SPSS statistical analysis.
# [3] = test system: release of 3H arachidonic acid / palmitic acid radiolabel from Dictyostelium cells; assay: Fatty acid release (3H radiolabel release from labelled cells); assay type: cell-based, Dictyostelium discoideum; details: for activity at 500 µM: Dictyostelium, 0.5 h, 3H-AA labelled cells, 0.5 mM treatment, read-out: AA release [% of control]; for effect of PLA2 inhibitors on radiolabel release from 3H-AA cells: BEL 80 μM, MAFP 50 μM, BPB 20 μM, cocktail of all three
# [4] = test system: uptake of 3H arachidonic acid / palmitic acid into Dictyostelium cells; assay: Fatty acid uptake (3H radiolabel incorporation into cells); assay type: cell-based, Dictyostelium discoideum
# [5] = Table 2; cited from earlier work
# [6] = test system: inositol levels in Dictyostelium cells; assay: Inositol levels in treated Dictyostelium cells; assay type: cell-based, Dictyostelium discoideum; details: time period causing phosphoinositide attenuation (9 min)
# Method: Following a 6 min incubation, labelling solution was removed and cells were lysed in acidified methanol and phospholipids were separated as previously detailed (Williams et al., 1999). Phospholipid labelling was quantified using a Typhoon phosphor-imager. Even loading was determined using total lipid stain with copper sulphate. Inositol levels were measured from five hour developed cells (similar to phospholipid labelling), following lyophilisation, as previously described (Maslanski & Busa, 1990).
# [7] = Table 1, 0.5 mM compound, 3 min pre-treatment + 6 min labelling, wild type Dictyostelium
# [8] = read-out: PIP Level (% control), Table 1, 0.5 mM compound, 3 min pre-treatment + 6 min labelling, wild type Dictyostelium
# [9] = read-out: PIP level % control, Table 2, VPA and straight chain acids in Dictyostelium
# [10] = Table 1, wild type Dictyostelium
compound,measurement,setting,value
"4-hexenoic acid, (cis + trans)",PIP Level (% control),[1]; [7],58 % control
"C=CCC(C)(C)C(=O)O [2,2-dimethyl-4-pentenoic acid]",activity at 500 µM,[1]; [8],60%
"CCCCC(C)(C)C(=O)O [2,2-dimethylhexanoic]",PIP Level (% control),[1]; [7],29.7 % control
CCCCCCC(CO)CCCC (stereo not drawn) [2-butyl-1-octanol],activity at 500 µM,[1]; [8],93%
CCCCCCC(CCCC)C(=O)O (stereo not drawn) [2-butyloctanoic acid],frequency of epileptiform discharges (seizure discharge frequency),[2],5.2±5.0%
CCCCCCCCC(CC)C(=O)O (stereo not drawn) [2-ethyl-decanoic],activity at 500 µM,"[3]; Table 3, 30 min",73%
CCCCC(CC)C(=O)O (stereo not drawn) [2-ethylhexanoic acid],activity at 500 µM,[1]; [8],22.2%
CCCCCCCCC(CO)CCCCCC (stereo not drawn) [2-hexyl-1-decanol],activity at 500 µM,[1]; [8],191%
CCCCCC(C)C(=O)O (stereo not drawn) [2-methylheptanoic],PIP Level (% control),[1]; [7],16.1 % control
CCCCC(C)C(=O)O (stereo not drawn) [2-methylhexanoic acid],activity at 500 µM,[1]; [8],68.1%
CCCC(C)C(=O)O (stereo not drawn) [2-methylpentanoic acid],activity at 500 µM,[1]; [8],59%
CCCC(CO)CCC [2-propyl-1-pentanol],activity at 500 µM,[1]; [8],101%
CCCCCCCCC(CCC)C(=O)O (stereo not drawn) [2-propyl-decanoic acid],activity at 500 µM,"[3]; Table 3, 30 min",56%
CCCCCCC(CCC)C(=O)O (stereo not drawn) [2-propyloctanoic acid],activity at 500 µM,"[3]; Table 3, 30 min",45%
same,radiolabel release activity relative to control,"[3]; Table 3, 30 min, 0.5 mM",≤ 45 % of control
same,frequency of epileptiform discharges (seizure discharge frequency),[2],5.3±3.3%
"CC(CC(=O)O)CC(C)(C)C (stereo not drawn) [3,5,5-trimethylhexanoic acid]",activity at 500 µM,[1]; [8],32%
C=CC(C)CC(=O)O (stereo not drawn) [3-methyl-4-pentenoic acid],activity at 500 µM,[1]; [8],84%
CCC(C)CC(=O)O (stereo not drawn) [3-methylpentanoic acid],activity at 500 µM,[1]; [8],64%
CCCCCCCCC(C)CC(=O)O (stereo not drawn) [3-methylundecanoic acid],activity at 500 µM,[1]; [8],50%
CCCCC(CC)CCC(=O)O (stereo not drawn) [4-ethyloctanoic acid],activity at 500 µM,[1]; [8],13.2%
same,activity at 500 µM,"[3]; Table 3, 30 min",87%
CCC(C)CCC(=O)O (stereo not drawn) [4-methylhexanoic acid],activity at 500 µM,[1]; [8],68%
CCCCCC(C)CCC(=O)O (stereo not drawn) [4-methylnonanoic acid],activity at 500 µM,[1]; [8],45%
same,activity at 500 µM,"[3]; Table 3, 30 min",63%
CC(C)CCCC(=O)O [5-methylhexanoic acid],activity at 500 µM,[1]; [8],7.2%
"O=C1O/C(=C/Br)CCC1c1cccc2ccccc12 (stereo not drawn) [BEL, reference compound]",effect of PLA2 inhibitors on radiolabel release from 3H-AA cells,[3],reduced radiolabel release
"O=C(CBr)c1ccc(Br)cc1 [BPB, reference compound]",effect of PLA2 inhibitors on radiolabel release from 3H-AA cells,[3],reduced radiolabel release
"CC(C)C(C(=O)O)C(C)C [DIA, diisopropylacetic acid]",activity at 500 µM,[1]; [8],18.6%
"O=C(O)C(c1ccccc1)c1ccccc1 [Diphenylacetic acid, 2,2-diphenylacetic acid]",activity at 500 µM,[1]; [8],39%
"NCCCC(=O)O [GABA, 4-aminobutanoic acid, reference compound]",activity at 500 µM,[1]; [8],60.8%
"CNC(=O)C1C(C)(C)C1(C)C [MTMCD, N-methyl-tetramethyl-cyclopropane carboxamide]",PIP Level (% control),[1]; [7],50.8 % control
"CCCC(C(=O)O)C(C)C (stereo not drawn) [PIA, propylisopropylacetic acid]",activity at 500 µM,[1]; [8],15.4%
same,inhibitory effect on radiolabel release,"[3]; 3H-AA, FIG. 9",strong
same,effect on 3H-AA uptake compared with VPA,"[4]; 3H-AA, FIG. 9",elevated uptake
"CCCC(C(N)=O)C(C)C (stereo not drawn) [PID, propylisopropylacetamide]",activity at 500 µM,[1]; [8],59%
"CC(C)(C)CC(=O)O [TBA, tert-butylacetic acid]",activity at 500 µM,[1]; [8],21.4%
"CC1(C)C(C(=O)O)C1(C)C [TMCA, tetramethylcyclopropane carboxylic acid]",PIP Level (% control),[1]; [7],33.9 % control
"CC1(C)C(C(N)=O)C1(C)C [TMCD, tetramethylcyclopropane-carboxamide]",PIP Level (% control),[1]; [7],72.5 % control
CCCCCCCCCC(=O)O [decanoic acid],activity at 500 µM,[1]; [8],12.9%
same,activity at 500 µM,[1]; [9],12.9%
same,activity at 500 µM,"[3]; Table 3, 30 min",62%
same,frequency of epileptiform discharges (seizure discharge frequency),[2],0.23±0.23%
CCCCCCCCCCCC(=O)O [dodecanoic acid],activity at 500 µM,[1]; [8],42%
same,activity at 500 µM,[1]; [9],42%
same,activity at 500 µM,"[3]; Table 3, 30 min",89%
same,pKa,[5],4.85
CCCCCCCCCCCCCCCCC(=O)O [heptadecanoic acid],activity at 500 µM,[1]; [8],92.3%
same,activity at 500 µM,[1]; [9],92.3%
same,pKa,[5],4.78
CCCCCCC(=O)O [heptanoic acid],activity at 500 µM,[1]; [8],31.2%
same,activity at 500 µM,[1]; [9],31.2%
same,pKa,[5],4.89
CCCCCC(=O)O [hexanoic acid],activity at 500 µM,[1]; [8],49.2%
same,activity at 500 µM,[1]; [9],49.2%
CCCCC(=O)OC [methylvalerate],activity at 500 µM,[1]; [8],46%
CCCOC(=O)C(C)CCC (stereo not drawn) [n-propyl 2-methylvalerate],activity at 500 µM,[1]; [8],121%
CCCCCCCCC=O [nonanal],activity at 500 µM,[1]; [8],99%
CCCCCCCCC(=O)O [nonanoic acid],activity at 500 µM,[1]; [8],8%
same,activity at 500 µM,[1]; [9],8%
same,reduction of PIP2 signalling,[1]; [10],93%
same,reduction of PIP signalling,[1]; [10],92%
same,activity at 500 µM,"[3]; Table 3, 30 min",66%
same,frequency of epileptiform discharges (seizure discharge frequency),[2],20.9±7.5%
same,reduction in inositol levels,[6],do not acutely deplete inositol
same,pKa,[5],4.95
CCCCCCCC=O [octanal],activity at 500 µM,[1]; [8],260%
CCCCCCCC(=O)O [octanoic acid],activity at 500 µM,[1]; [8],16.7%
same,activity at 500 µM,[1]; [9],16.7%
same,activity at 500 µM,"[3]; Table 3, 30 min",72%
same,pKa,[5],4.89
CCCCC=O [pentanal],activity at 500 µM,[1]; [8],52%
CCCCC(=O)O [pentanoic acid],activity at 500 µM,[1]; [8],66.9%
same,activity at 500 µM,[1]; [9],66.9%
same,frequency of epileptiform discharges (seizure discharge frequency),[2],not seen
same,pKa,[5],4.84
CC/C=C/C(=O)O [trans-pent-2-enoic acid],activity at 500 µM,[1]; [8],50.4%
"CCC(C)C(CC)C(N)=O (stereo not drawn) [valnocatmide, 2-ethyl-3-methyl valeramide, reference compound]",PIP Level (% control),[1]; [7],64 % control
Tert-butyl amide,PIP Level (% control),[1]; [7],47.6 % control
latrunculin,effect on VPA-induced AA uptake,[4]; latrunculin 10 μM,failed to attenuate
same,fatty acid uptake in control cells,[4]; latrunculin 10 μM,decreased uptake
